Where “and” joins values, the source holds several entries; their conditions need not be identical. Identical values can stand only once.
What was measured:
[1] = Solution stability test (HPLC) of mixed bile acids with maltodextrin in aqueous solution, Example II; assay type: physicochemical; conditions: Table 2: pH 1, 50° C.
Description: (§1) The stability of dosage formulations of the invention were evaluated by measuring the concentration of the relevant bile acid over time in preparations comprising soluble bile acid, a high molecular weight aqueous soluble starch conversion product, and water at various pH and temperature levels. The retention time of each bile acid may be adjusted as needed to permit individual analysis each bile acid present in a complex samples, i.e. a sample having a plurality of bile acids.
(§2) The stability tests were conducted on three different aqueous solution systems: […].
(§3) The stability tests were performed with HPLC and microscope light at various pH conditions under the normal and accelerated conditions. Accelerated conditions for testing pharmaceutical compositions have been described (Remington, The Science and Practice of Pharmacy, 19th ed., p. 640). […] Thus, the formulations of the examples are suitable for preparing a commercial liquid dosage form. […] Some formulations remain stable for over 2 years.
(§4) For the solution stability test for each bile acid, HPLC was used to measure the concentration of the relevant soluble bile acid under the following conditions: the elution solvent of 0.02 M KH2PO4:acetonitrile in a ratio of 55:45, with a pH of 3.01, the flow rate was 0.8 mL/min., the injection volume was 20 μL, wave length for detection was 195 nm. In the tables, the concentration of the indicated bile acid salt for each of the three numbered trials and the average thereof is reported on each line. The percentage indicates the relative concentration of the bile acid salt after incubation for a certain amount of time in comparison with the initial concentration.
Into the resulting clear solution, maltodextrin was added with agitating at room temperature. Purified water was added to adjust the total volume to be 100 mL.

[2] = cited from earlier work
[3] = Solution stability test (HPLC) of single bile acid with maltodextrin in aqueous solution, Example I; assay type: physicochemical
Description: as §1, §2, §3, §4
100 mL of the aqueous solution in which one of the above bile acids is dissolved was prepared. Into the resulting clear solution, maltodextrin, a high molecular weight aqueous soluble starch conversion product, was added with agitation at room temperature. Purified water was added to adjust the total volume to be 100 mL. According to the instant invention and all examples, purified water is deionized, distilled deionized-distilled water, or a grade commonly used for pharmaceutical preparations.

[4] = Table 1B: pH 10, 50° C., day 20

In the case of C[C@H](CCC(=O)O)[C@H]1CC[C@H]2[C@@H]3C(=O)C[C@@H]4C[C@H](O)CC[C@]4(C)[C@H]3CC[C@]12C [KLCA, 7-ketolithocholic acid], the “Percentage of day 0 concentration” value ([1]; day 0) was 100.0%, the “concentration by HPLC, Average” value ([1]; day 0) was 0.876 and the “concentration by HPLC, trials #1-#3” value ([1]; day 0) was 0.883 and 0.877 and 0.869. For the same molecule, the “Percentage of day 0 concentration” value ([1]; day 4) was 98.3%, the “concentration by HPLC, Average” value ([1]; day 4) was 0.861 and the “concentration by HPLC, trials #1-#3” value ([1]; day 4) was 0.870 and 0.866 and 0.847. The “Percentage of day 0 concentration” value ([1]; day 7) was 96.4%, the “concentration by HPLC, Average” value ([1]; day 7) was 0.845 and the “concentration by HPLC, trials #1-#3” value ([1]; day 7) was 0.848 and 0.844 and 0.843. The “Percentage of day 0 concentration” value ([1]; day 20) was 74.9%, the “concentration by HPLC, Average” value ([1]; day 20) was 0.656 and the “concentration by HPLC, trials #1-#3” value ([1]; day 20) was 0.661 and 0.651. For the same molecule, the “solubility in the gastric juices and in aqueous hydrochloric acid solution” value [2] was “especially insoluble”, the “Percentage of day 0 concentration” value ([3]; Table 1A: pH 7, 50° C., day 0) was 100.0% and the “concentration by HPLC, Average” value ([3]; Table 1A: pH 7, 50° C., day 0) was 0.880. The “concentration by HPLC, trials #1-#3” value ([3]; Table 1A: pH 7, 50° C., day 0) was 0.888 and 0.879 and 0.874, the “Percentage of day 0 concentration” value ([3]; Table 1A: pH 7, 50° C., day 4) was 100.2% and the “concentration by HPLC, Average” value ([3]; Table 1A: pH 7, 50° C., day 4) was 0.882. For the same molecule, the “concentration by HPLC, trials #1-#3” value ([3]; Table 1A: pH 7, 50° C., day 4) was 0.871 and 0.887 and 0.888, the “Percentage of day 0 concentration” value ([3]; Table 1A: pH 7, 50° C., day 7) was 101.4% and the “concentration by HPLC, Average” value ([3]; Table 1A: pH 7, 50° C., day 7) was 0.893. The “concentration by HPLC, trials #1-#3” value ([3]; Table 1A: pH 7, 50° C., day 7) was 0.897 and 0.893 and 0.888, the “Percentage of day 0 concentration” value ([3]; Table 1A: pH 7, 50° C., day 20) was 102.1% and the “concentration by HPLC, Average” value ([3]; Table 1A: pH 7, 50° C., day 20) was 0.899. For the same molecule, the “concentration by HPLC, trials #1-#3” value ([3]; Table 1A: pH 7, 50° C., day 20) was 0.893 and 0.909 and 0.894, the “Percentage of day 0 concentration” value ([3]; Table 1B: pH 10, 50° C., day 0) was 100.0% and the “concentration by HPLC, Average” value ([3]; Table 1B: pH 10, 50° C., day 0) was 0.870. The “concentration by HPLC, trials #1-#3” value ([3]; Table 1B: pH 10, 50° C., day 0) was 0.879 and 0.874 and 0.857, the “Percentage of day 0 concentration” value ([3]; Table 1B: pH 10, 50° C., day 4) was 100.5% and the “concentration by HPLC, Average” value ([3]; Table 1B: pH 10, 50° C., day 4) was 0.874. The “concentration by HPLC, trials #1-#3” value ([3]; Table 1B: pH 10, 50° C., day 4) was 0.870 and 0.873 and 0.880, the “Percentage of day 0 concentration” value ([3]; Table 1B: pH 10, 50° C., day 7) was 101.5% and the “concentration by HPLC, Average” value ([3]; Table 1B: pH 10, 50° C., day 7) was 0.884. For the same molecule, the “concentration by HPLC, trials #1-#3” value ([3]; Table 1B: pH 10, 50° C., day 7) was 0.893 and 0.876 and 0.882, the “Percentage of day 0 concentration” value [3, 4] was 102.2% and the “concentration by HPLC, Average” value [3, 4] was 0.889. For the same molecule, the “concentration by HPLC, trials #1-#3” value [3, 4] was 0.887 and 0.893.

— patent publication US7166299B2, “Preparation of aqueous clear solution dosage forms with bile acids” (priority 1998, dated 2007)
